From patent US5140009A (Tap Pharmaceuticals, Inc., priority 1990, dated 1992)
Like-named read-outs stand apart in the source and are kept apart here. Numbered stars: 1 amine (or outer) side, 2 acyl side, 3 side chain; on linkers, the order of the positions; unused ones are H or OH. Square brackets hold non-standard residues; d marks the D form. Side chains are listed from the residue outwards. Peptide text beside a SMILES is read from it. * marks the point of attachment. Propanoyl(3-(4-F-phenyl)) = O=C(CCc1ccc(F)cc1)*; Phe(4-Cl) = N[C@@H](Cc1ccc(Cl)cc1)C(=O)O; X10 = O=C([C@@H](Cc1cncs1)N[*:1])[*:2]; 1Nal = N[C@@H](Cc1cccc2ccccc12)C(=O)O; d1Nal = N[C@H](Cc1cccc2ccccc12)C(=O)O; Lys(iPr) = CC(C)NCCCC[C@H](N)C(=O)O; NMeY = CN[C@@H](Cc1ccc(O)cc1)C(=O)O; Benzoyl(4-F) = O=C(c1ccc(F)cc1)*; d3Pal = N[C@H](Cc1cccnc1)C(=O)O; d2Thi = N[C@H](Cc1cccs1)C(=O)O; NHPhenethyl = c1ccc(CCN*)cc1; Nicotinoyl = O=C(c1cccnc1)*; X12 = O=C(c1ccc(F)c(Cl)c1)*; Morpholide = C1CN(*)CCO1; Orn = NCCC[C@H](N)C(=O)O; CO = O=C([*:1])[*:2]; azaGly = NNC(=O)O

Biological target: T1, LHRH receptors (Rattus norvegicus, UniProt P30969)
T1 construct: Pituitary membranes containing LHRH receptors are prepared in batches from quick-frozen rat pituitaries; tissue Hilltop Labs; host or cells: rat pituitary membranes
T1 sequence (P30969 1-327): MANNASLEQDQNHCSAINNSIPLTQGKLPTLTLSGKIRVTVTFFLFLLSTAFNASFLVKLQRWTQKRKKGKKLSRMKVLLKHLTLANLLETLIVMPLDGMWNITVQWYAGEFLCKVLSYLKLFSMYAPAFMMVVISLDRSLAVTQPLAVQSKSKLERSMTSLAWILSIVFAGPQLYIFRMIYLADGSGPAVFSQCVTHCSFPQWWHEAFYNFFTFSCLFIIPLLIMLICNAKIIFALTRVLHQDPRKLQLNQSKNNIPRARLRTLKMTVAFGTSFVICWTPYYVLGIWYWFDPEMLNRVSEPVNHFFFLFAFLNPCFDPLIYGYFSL
Assay: Receptor Binding (radioligand receptor binding assay)
Conditions: table 4, rat pituitary membranes, radioligand 50 pM, 2 hours at 4° C.

[1] = read-out: Receptor Binding pkI (converted)

CC(C)C[C@H](NC(=O)[C@@H](Cc1cccnc1)NC(=O)[C@H](Cc1ccc(O)cc1)N(C)C(=O)[C@H](CO)NC(=O)[C@@H](Cc1cccc2ccccc12)NC(=O)CCc1ccc(F)cc1)C(=O)N[C@@H](CCCCNC(C)C)C(=O)N1CCC[C@H]1C(=O)N[C@H](C)C(N)=O [Compound 208, (3-10)[N-(3-(4-Fluorophenyl)propionyl)-D-1-Nal^3 -NMeTyr^5 -D-3-Pal^6 -Lys^8 (N-epsilon-isopropyl)-D-Ala^10]LHRH] ({Propanoyl(3-(4-F-phenyl))}-[d1Nal]S[NMeY][d3Pal]L[Lys(iPr)]P[dA]-NH2)
Ki [1]: 0.0126 nM

CC(C)C[C@H](NC(=O)[C@@H](CCCCNC(=O)N1CCOCC1)NC(=O)[C@H](Cc1ccc(O)cc1)N(C)C(=O)[C@H](CO)NC(=O)[C@@H](Cc1cccc2ccccc12)NC(=O)CCc1ccc(F)cc1)C(=O)N[C@@H](CCCNC(=N)N)C(=O)N1CCC[C@H]1C(=O)N[C@H](C)C(N)=O [Compound 210, N-(3-(4-Fluorophenyl)propionyl)-D-1-Nal-Ser-NMeTyr-D-Lys(N-epsilon-morpholinecarbonyl)-Leu-Arg-Pro-D-AlaNH2] ({Propanoyl(3-(4-F-phenyl))}-[d1Nal]S[NMeY][dK]([CO-Morpholide])LRP[dA]-NH2)
Ki [1]: 0.00891 nM

CC(C)C[C@H](NC(=O)[C@@H](CCCCNC(=O)c1cccnc1)NC(=O)[C@H](CCCCNC(=O)NN)NC(=O)[C@H](CO)NC(=O)[C@@H](Cc1cccc2ccccc12)NC(=O)CCc1ccc(F)cc1)C(=O)N[C@@H](CCCNC(=N)N)C(=O)N1CCC[C@H]1C(=O)N[C@H](C)C(N)=O [Compound 212, N-(3-(4-Fluorophenyl)propionyl)-D-1-Nal-Ser-Lys(N-epsilon-hydrazinecarbonyl)-D-Lys(N-epsilon-nicotinyl)-Leu-Arg-Pro-D-AlaNH2] ({Propanoyl(3-(4-F-phenyl))}-[d1Nal]SK(azaGly)[dK](Nicotinoyl)LRP[dA]-NH2)
Ki [1]: 0.0339 nM

CC(C)C[C@H](NC(=O)[C@@H](CCCCNC(=O)N1CCOCC1)NC(=O)[C@H](Cc1ccc(O)cc1)N(C)C(=O)[C@H](CO)NC(=O)[C@@H](Cc1cccc2ccccc12)NC(=O)CCc1ccc(F)cc1)C(=O)N[C@@H](CCCCNC(C)C)C(=O)N1CCC[C@H]1C(=O)N[C@H](C)C(N)=O [Compound 213, N-(3-(4-Fluorophenyl)propionyl)-D-1-Nal-Ser-NMeTyr-D-Lys(N-epsilon-morpholnecarbonyl)-Leu-Lys(N-epsilon-isopropyl)-Pro-D-AlaNH2] ({Propanoyl(3-(4-F-phenyl))}-[d1Nal]S[NMeY][dK]([CO-Morpholide])L[Lys(iPr)]P[dA]-NH2)
Ki [1]: 0.0148 nM

CC(=O)NCCCC[C@H](NC(=O)c1ccc(F)c(Cl)c1)C(=O)N[C@H](Cc1cccc2ccccc12)C(=O)N[C@@H](CO)C(=O)N(C)[C@@H](Cc1ccc(O)cc1)C(=O)N[C@H](CCCCN)C(=O)N[C@@H](CC(C)C)C(=O)N[C@@H](CCCNC(=N)N)C(=O)N1CCC[C@H]1C(=O)N[C@H](C)C(N)=O [Compound 214, N-alpha-(3-Chloro-4-Fluorobenzoyl)-Lys(N-epsilon-acetyl)-D-1-Nal-Ser-NMeTyr-D-Lys-Leu-Arg-Pro-D-AlaNH2] (X12-K(Ac)[d1Nal]S[NMeY][dK]LRP[dA]-NH2)
Ki [1]: 0.141 nM

CC(=O)NCCC[C@H](NC(=O)c1ccc(F)cc1)C(=O)N[C@H](Cc1cccc2ccccc12)C(=O)N[C@@H](CO)C(=O)N(C)[C@@H](Cc1ccc(O)cc1)C(=O)N[C@H](Cc1cncs1)C(=O)N[C@@H](CC(C)C)C(=O)N[C@@H](CCCCNC(C)C)C(=O)N1CCC[C@H]1C(=O)N[C@H](C)C(N)=O [Compound 215, N-alpha-(4-Fluorobenzoyl)-Orn(N-delta-acetyl)-D-1-Nal-Ser-NMeTyr-D-Thiaz-Leu-Lys(N-epsilon-isopropyl)-Pro-D-AlaNH2] ({Benzoyl(4-F)}-[Orn](Ac)[d1Nal]S[NMeY][X10]L[Lys(iPr)]P[dA]-NH2)
Ki [1]: 0.339 nM

CC(=O)NCCC[C@H](NC(=O)c1ccc(F)cc1)C(=O)N[C@H](Cc1cccc2ccccc12)C(=O)N[C@@H](CO)C(=O)N[C@@H](Cc1ccc(O)cc1)C(=O)N[C@H](CCCCNC(=O)c1cccnc1)C(=O)N[C@@H](CC(C)C)C(=O)N[C@@H](CCCNC(=N)N)C(=O)N1CCC[C@H]1C(=O)N[C@H](C)C(N)=O [Compound 217, N-alpha-(4-Fluorobenzoyl)-Orn(N-delta-acetyl)-D-1-Nal-Ser-Tyr-D-Lys(N-epsilon-nicotinyl)-Leu-Arg-Pro-D-AlaNH2] ({Benzoyl(4-F)}-[Orn](Ac)[d1Nal]SY[dK](Nicotinoyl)LRP[dA]-NH2)
Ki [1]: 1.91 nM

CC(=O)NCCC[C@H](NC(=O)c1ccc(F)cc1)C(=O)N[C@H](Cc1cccc2ccccc12)C(=O)N[C@@H](CO)C(=O)N(C)[C@@H](Cc1ccc(O)cc1)C(=O)N[C@H](CCCCNC(=O)c1cccnc1)C(=O)N[C@@H](CC(C)C)C(=O)N[C@@H](CCCCNC(C)C)C(=O)N1CCC[C@H]1C(=O)N[C@H](C)C(N)=O [Compound 218, N-alpha-(4-Fluorobenzoyl)-Orn(N-delta-acetyl)-D-1-Nal-Ser-NMeTyr-D-Lys(N-epsilon-nicotinyl)-Leu-Lys(N-epsilon-isopropyl)-Pro-D-AlaNH2] ({Benzoyl(4-F)}-[Orn](Ac)[d1Nal]S[NMeY][dK](Nicotinoyl)L[Lys(iPr)]P[dA]-NH2)
Ki [1]: 0.832 nM

CC(C)C[C@H](NC(=O)[C@@H](Cc1c[nH]c2ccccc12)NC(=O)[C@H](Cc1ccc(O)cc1)N(C)C(=O)[C@H](CO)NC(=O)[C@@H](Cc1c[nH]c2ccccc12)NC(=O)[C@@H](Cc1cccc2ccccc12)NC(=O)N1CCOCC1)C(=O)N[C@@H](CCCNC(=N)N)C(=O)N1CCC[C@H]1C(=O)N[C@H](C)C(N)=O [Compound 220, (2-10)[N-(alpha-Morpholinocarbonyl)-D-1-Nal^2 -D-Trp^3,6 -NMeTyr^5 -D-Ala^10]LHRH] ({Morpholide-CO}-[d1Nal][dW]S[NMeY][dW]LRP[dA]-NH2)
Ki [1]: 0.17 nM

CC(C)C[C@H](NC(=O)[C@@H](Cc1c[nH]c2ccccc12)NC(=O)[C@H](Cc1ccc(O)cc1)N(C)C(=O)[C@H](CO)NC(=O)[C@@H](Cc1c[nH]c2ccccc12)NC(=O)[C@H](Cc1cccc2ccccc12)NC(=O)N1CCOCC1)C(=O)N[C@@H](CCCNC(=N)N)C(=O)N1CCC[C@H]1C(=O)N[C@H](C)C(N)=O [Compound 221, (2-10)[N-(alpha-Morpholinocarbonyl)-1-Nal^2 -D-Trp^3,6 -NMeTyr^5 -D-Ala^10]LHRH] ({Morpholide-CO}-[1Nal][dW]S[NMeY][dW]LRP[dA]-NH2)
Ki [1]: 0.204 nM

CC(C)C[C@H](NC(=O)[C@@H](Cc1c[nH]c2ccccc12)NC(=O)[C@H](Cc1ccc(O)cc1)NC(=O)[C@H](CO)NC(=O)[C@H](Cc1c[nH]c2ccccc12)NC(=O)[C@H](Cc1cccc2ccccc12)NC(=O)N1CCOCC1)C(=O)N[C@@H](CCCNC(=N)N)C(=O)N1CCC[C@H]1C(=O)N[C@H](C)C(N)=O [Compound 223, (2-10)[N-(alpha-Morpholinocarbonyl)-1-Nal^2 -D-Trp^6 -D-Ala^10]LHRH] ({Morpholide-CO}-[1Nal]WSY[dW]LRP[dA]-NH2)
Ki [1]: 0.0269 nM

CC(C)C[C@H](NC(=O)[C@@H](CCCCN)NC(=O)[C@H](Cc1ccc(O)cc1)N(C)C(=O)[C@H](CO)NC(=O)[C@@H](Cc1cccs1)NC(=O)[C@H](Cc1ccc(Cl)cc1)NC(=O)N1CCOCC1)C(=O)N[C@@H](CCCNC(=N)N)C(=O)N1CCC[C@H]1C(=O)N[C@H](C)C(N)=O [Compound 230, (2-10)[N-(alpha-Morpholinocarbonyl)-4-Cl-Phe^2 -D-Thia^3 -NMeTyr^5 -D-Lys^6 -D-Ala^10]LHRH] ({Morpholide-CO}-[Phe(4-Cl)][d2Thi]S[NMeY][dK]LRP[dA]-NH2)
Ki [1]: 0.11 nM

CC(C)C[C@H](NC(=O)[C@@H](Cc1c[nH]c2ccccc12)NC(=O)[C@H](Cc1ccc(O)cc1)N(C)C(=O)[C@H](CO)NC(=O)[C@@H](Cc1c[nH]c2ccccc12)NC(=O)[C@@H](Cc1ccccc1)NC(=O)NCCc1ccccc1)C(=O)N[C@@H](CCCNC(=N)N)C(=O)N1CCC[C@H]1C(=O)N[C@H](C)C(N)=O [Compound 234, N-(alpha-Phenethylaminocarbonyl)-D-Phe-D-Trp-Ser-NMeTyr-D-Trp-Leu-Arg-Pro-D-AlaNH2] ({NHPhenethyl-CO}-[dF][dW]S[NMeY][dW]LRP[dA]-NH2)
Ki (Receptor Binding pkI): 0.398 nM

CCNC(=O)[C@@H]1CCCN1C(=O)[C@H](CCCNC(=N)N)NC(=O)[C@H](CC(C)C)NC(=O)[C@@H](Cc1c[nH]c2ccccc12)NC(=O)[C@H](Cc1ccc(O)cc1)NC(=O)[C@H](CO)NC(=O)[C@@H](Cc1cccs1)NC(=O)[C@H](Cc1ccccc1)NC(=O)N1CCOCC1 [Compound 236, (2-9)[N-(alpha-Morpholinocarbonyl)-Phe^2 -D-Thia^3 -D-Trp^6 -Pro^9 NHEt]LHRH] ({Morpholide-CO}-F[d2Thi]SY[dW]LRP-NHEt)
Ki [1]: 0.708 nM

CCNC(=O)[C@@H]1CCCN1C(=O)[C@H](CCCNC(=N)N)NC(=O)[C@H](CC(C)C)NC(=O)[C@@H](Cc1c[nH]c2ccccc12)NC(=O)[C@H](Cc1ccc(O)cc1)NC(=O)[C@H](CO)NC(=O)[C@H](Cc1cccc2ccccc12)NC(=O)[C@H](Cc1ccccc1)NC(=O)N1CCOCC1 [Compound 237, (2-9)[N-(alpha-Morpholinocarbonyl)-Phe^2-1-Nal^3 -D-Trp^6 -Pro^9 NHEt]LHRH] ({Morpholide-CO}-F[1Nal]SY[dW]LRP-NHEt)
Ki [1]: 0.0355 nM

CCNC(=O)N[C@@H](Cc1ccccc1)C(=O)N[C@H](Cc1cccc2ccccc12)C(=O)N[C@@H](CO)C(=O)N[C@@H](Cc1ccc(O)cc1)C(=O)N[C@H](Cc1c[nH]c2ccccc12)C(=O)N[C@@H](CC(C)C)C(=O)N[C@@H](CCCNC(=N)N)C(=O)N1CCC[C@H]1C(=O)NCC [Compound 238, (2-9)[N-(alpha-Ethylaminocarbonyl)-Phe^2 -D-1-Nal^3 -D-Trp^6 -Pro^9 NHEt]LHRH] ({NHEt-CO}-F[d1Nal]SY[dW]LRP-NHEt)
Ki [1]: 0.251 nM
